Laboratory results taken from patent US20110136898A1, “TREATMENT OF RETINAL DEGENERATION” (UNIVERSITY COLLEGE CORK, NATIONAL UNIVERSITY OF IRELAND, …, priority 2008, published 2011).
Entries after “also recorded” stand apart in the source; their conditions may differ. One block for each molecule: values may come before it.

How the values were obtained:
photoreceptor cells [1] = test: SNP challenge in photoreceptor cells, protection by BP derivatives; format: cell-based
Method: FIG. 2: Is a histogram of results showing the effectiveness of a 25 μM concentration of each of the BP derivatives BP-1 to BP6 against increasing concentrations of SNP in photoreceptor cells. Error bars are +/−standard deviation-SD.
(§1) FIG. 4: Is a histogram of % protection afforded by a 25 μM concentration of each BP derivative BP1 to BP6 in photoreceptor cells as a function of the lipophilicity of each derivative. (P is a logarithmic value that indicates the lipophilicity of a compound).

photoreceptor cells [2] = test: Retinal explant culture, SNP induced apoptosis detected by TUNEL; format: cell-based, C57BL/6 mice; conditions: for Protection of photoreceptor cells from SNP induced apoptosis at 25 μM / Protection of photoreceptor cells from SNP induced apoptosis: 300 μM SNP 24 h, 1 hour pre-treatment; for Protection of photoreceptor cells from SNP induced apoptosis: retinal explants, TUNEL
photoreceptor cells [3] = test: Light damage model in vivo, TUNEL; design: species or system albino balb/c mice; conditions: for Protection from light induced retinal damage (apoptosis of photoreceptors): 200 mg/kg IP, 1 hour pre-treatment, single injection
Method: FIG. 7: In this figure the study was extended from ex vivo cultures to the light damage model in vivo. In this acute model of retinal disease albino balb/c mice are exposed to excessive white light causing the photoreceptor cells to die by apoptosis. […] The protection extends to 48 hours with only a single injection of BP3.
FIG. 8 is a histogram of the results from FIG. 7. TUNEL positive cells in three independent retinae were counted. Counts were performed on the central 40× field of the outer nuclear layer (ONL) and graphed with error bars (+/−standard deviation-SD).
(§2) Apoptosis detection by Terminal deoxynucleotidyl transferase-mediated biotinylated UTP nick end labeling (TUNEL): Retinal explants were fixed in 10% neutral buffered formalin overnight at 4° C., followed by cryoprotection in 25% sucrose overnight at 4° C. Frozen sections (7 μm) were incubated with terminal deoxynucleotidyl transferase (MSC, Dublin, Republic of Ireland) and fluorescein-12-dUTP (Roche, Lewes, UK) according to manufacturers' instructions at 37° C. for 1 h. Sections were mounted and viewed under a fluorescence microscope (Leica DM LB2; Leica, Nussloch, Germany) using an FITC filter.
Light damage model: Balb/c mice were dark adapted for 18 h prior to exposure to constant light. Mice were injected intraperitoneally with the Active 1 hour prior to light damage. Immediately prior to light exposure their pupils were dilated with 0.5% cyclopentolate under red light. Retinal light damage was induced by exposure to 2 h of cool white fluorescent light at an illumination of 5000 lux. Following exposure to constant light, animals were placed in the dark for 24 h then killed immediately by cervical dislocation. TUNEL staining was performed as described above.

photoreceptor cells [4] = test: rd10 chronic model of retinal degeneration; format: in vivo, rd10 mouse
Excerpt: In this model photoreceptor cells degenerate more slowly than the light model, over weeks rather than hours to days. Cell death is evident from postnatal day 18 (P18) and by P25 a significant loss of photoreceptor cell layers is observed. […] In this model, the central and peripheral retina degenerate at different rates. The loss of photoreceptors is greater in the central retina than the periphery between P18 and P25.
FIG. 10: The ONL comprises two types of cell; rod photoreceptors and cone photoreceptors. […] Rhodopsin is a protein specifically found in the outer segments (OS) of rod photoreceptors. […] Peanut agglutinin (PNA) is a lectin which binds to carbohydrates found in the outer membrane of cone photoreceptors but which are absent from rods.
Frozen sections (7 μm) were blocked with 0.1% bovine serum albumin (BSA) in 0.1% tween/PBS for 1 hour at room temperature. Sections were incubated with anti-rhodopsin antibody (LAB VISION Corporation, Fremont, Calif., USA) overnight at 4° C. Sections were washed and incubated with FITC conjugated secondary mouse antibody (Dako, Glostrup, Denmark) for 1 hour at room temperature. Following further washes, sections were mounted and viewed under a fluorescence microscope (Leica DM LB2; Leica, Nussloch, Germany) using a FITC filter.
Frozen sections (7 μm) were blocked with 0.1% bovine serum albumin (BSA) in 0.1% tween/PBS for 30 minutes at room temperature. Sections were incubated with rhodamine conjugated PNA (Invitrogen, Dun Laoghaire, Ireland) for 20 minutes at room temperature as per manufacturers' instructions. Sections were mounted and viewed under a fluorescence microscope (Leica DM LB2; Leica, Nussloch, Germany) using a TRITC filter.
(§3) Frozen sections (7 μm) were stained in Hematoxylin (Sigma, Dublin, Ireland) for 10 seconds followed by a 15 minute water wash and 2-3 dips in acid alcohol. Following further washing, sections were placed in a 2% sodium bicarbonate (Sigma, Dublin, Ireland) solution for 30 seconds then dehydrated through an alcohol gradient. Sections were cleared in Histoclear (Sigma, Dublin, Ireland) for 5 minutes then mouted in DPX (BDH, VWR International Ltd., Poole, England) and viewed under a light microscope (Leica DM LB2; Leica, Nussloch, Germany).
It is a better model of the slow progression of typical human autosomal recessive RP than the acute light model as photoreceptor cells are lost over a period of weeks rather than days. Loss of photoreceptors in the rd10 mouse begins at approximately 2 weeks of age, with the peak of photoreceptor death occurring at postnatal day (P) 25.

ganglion cells = test: NMDA-induced excitotoxicity, acute model of Glaucoma; format: in vivo, balb/c mice
Method: In this model intravitreal injection of 40 mM NMDA results in the progressive loss of ganglion cells from the ganglion cell layer (GCL), accompanied by a thinning of the inner plexiform layer (IPL) over time.
By 48 and 72 hours post excitotoxicity the eventual loss of cells of the ONL is evident.
FIG. 13 is a histogram of the data from FIG. 12.
as §2
as §3, with “Hematoxylin staining: Eyes were fixed in 10% neutral buffered formalin overnight at 4° C., followed by cryoprotection in 25% sucrose overnight at 4° C. Frozen” for “Frozen”
Intravitreal Injections: Adult balb/c mice were anaesthetised using an intraperitoneal injection of ketamine hydrochloride 35-50 mg/kg (Pharmacia, Corby, Northamptonshire, UK) and xylazine hydrochloride 5-10 mg/kg (Chanelle Pharmaceuticals, Loughrea, Co. Galway, Ireland), and animals were placed in the pronate position. […]

[5] = Lipophilicity of BP derivatives; format: physicochemical; conditions: FIG. 4
Method: as §1

[6] = Stability of BP derivatives; format: physicochemical
[7] = 200 mg/kg 1 hour prior to 40 mM NMDA injection, 48 and 72 hours post insult

SMILES: CCCCC(C)C(=O)Oc1cc2c(cc1OC)OC(C)(C)CC2 (centres unmarked) [BP3]
Inhibition of apoptosis in retinal cells (photoreceptor cells [1]): inhibiting apoptosis
Protection of photoreceptor cells from SNP induced apoptosis at 25 μM (photoreceptor cells [2]; FIGS. 5 and 6): effective
Concentration at which BP3 is equally as effective, times lower than BP (photoreceptor cells [2]; SNP induced apoptosis, FIGS. 5 and 6): 10 times
Protection of photoreceptor cells from SNP induced apoptosis (photoreceptor cells [2]): protect photoreceptor cells from SNP induced apoptosis
Protection of photoreceptor cells from SNP induced apoptosis (photoreceptor cells [2]; listed as BP-3): inhibiting apoptosis; also recorded: better protection
Protection from light induced retinal damage (apoptosis of photoreceptors) (photoreceptor cells [3]): protects from the retinal damage observed
Protection from light induced retinal damage (apoptosis of photoreceptors) (photoreceptor cells [3]; listed as BP-3): protected
Protection from light induced cell death in the central retina (TUNEL positive cells, ONL) (photoreceptor cells [3]; at 24, 48 and 72 hours, 200 mg/kg, FIG. 8): approx 40%
Protection at 72 hours post light damage (photoreceptor cells [3]; second dose of 200 mg/kg at 24 hours post light damage): significant protection
Time to which protection extends (photoreceptor cells [3]; single injection of 200 mg/kg, post light damage): 48 h
Cone cells in the ONL (PNA staining) (photoreceptor cells [4]; alternate days from P18 to P25): more cone cells
Rhodopsin positive cells (rods) in the ONL compared to vehicle (photoreceptor cells [4]; alternate days from P18 to P25, immunofluorescent staining): more rhodopsin positive cells remain
Protection from photoreceptor cell death in the ONL (photoreceptor cells [4]; injected daily with 200 mg/kg, P18 to P25, 200 mg/kg): protection from photoreceptor cell death in the ONL; also recorded: areas of the retina are protected
Protection of retinal areas, alternate-day injection versus daily injection (photoreceptor cells [4]; injection on alternate days, all retinal areas): same level of protection as a daily injection regimen
Ganglion cell loss from the GCL (ganglion cells; [7]): significantly attenuates
IPL thinning (ganglion cells; [7]): significantly attenuates
Protection from NMDA-induced cell death (TUNEL positive cells, all retinal layers) (ganglion cells; 200 mg/kg I.P. 1 hour prior to NMDA injection, 4, 24, 48 and 72 hours): significantly protects retinal cells in all layers at all time points examined; also recorded: significant protection
Lipophilicity (P), rank order [5]: BP1<BP2<BP3=BP5=BP6<BP4
Stability of the compound [6]: far more stable than BP4

SMILES: COc1cc2c(cc1O)CCC(C)(C)O2 [BP, 3,4-dihydro-6-hydroxy-7-methoxy-2,2-dimethyl-1(2H)-benzopyran]
Protection of photoreceptor cells from SNP induced apoptosis at 25 μM (photoreceptor cells [2]; FIGS. 5 and 6): effective
Protection of photoreceptor cells from SNP induced apoptosis (photoreceptor cells [2]): protect photoreceptor cells from SNP induced apoptosis

SMILES: COc1cc2c(cc1OC(=O)c1ccccc1)CCC(C)(C)O2 [BP5]
Lipophilicity (P), rank order [5]: BP1<BP2<BP3=BP5=BP6<BP4

SMILES: C#CC1(O)CC[C@H]2[C@@H]3CCC4=CC(=O)CC[C@@H]4[C@H]3CC[C@@]21CC (mixture of isomers) [norgestrel, reference compound]
Protection of photoreceptor cells from SNP induced apoptosis (photoreceptor cells [2]): protected

Other lines, results leading:

Lipophilicity (P), rank order [5]: BP1<BP2<BP3=BP5=BP6<BP4
SMILES: COc1cc2c(cc1OC(=O)c1ccccc1F)CCC(C)(C)O2 [BP6]

Lipophilicity (P), rank order [5]: BP1<BP2<BP3=BP5=BP6<BP4
SMILES: COc1cc2c(cc1OC(C)=O)CCC(C)(C)O2 [BP1]

Lipophilicity (P), rank order [5]: BP1<BP2<BP3=BP5=BP6<BP4
SMILES: COc1cc2c(cc1OC(=O)C(C)(C)C)CCC(C)(C)O2 [BP2]
